# Measured values published in PubChem BioAssay AID1918998 (Molecular Pharmacology Branch, DTP, NCI, 2023).
# Test system: 521955-158-R2-J5-PDC complex spheroid growth
# Test: Anticancer human tumor 521955-158-R2-J5-PDC patient-derived pancreatic carcinoma cell line growth inhibition [AhR]
# Conditions: for viability, T/C: stronger effect = lower value
# Method in brief: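 Complex tumor spheroids co-cultured with HUVEC and human MSC stroma; AhR antagonists tested in combination with standard-of-care and investigational agents. Top concentration at or near clinical Cmax (else 10 microM), half-log dilutions; growth expressed as percent test/control.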
# [1] = curve of first compound, second compound 0.1 µM
# [2] = curve of first compound, second compound 0.316 µM
# [3] = curve of first compound, second compound 1 µM
# [4] = curve of first compound, second compound 3.16 µM
# [5] = curve of first compound, second compound 10 µM
# [6] = second compound 0.1 µM, first compound 0.0316 µM
# [7] = second compound 0.1 µM, first compound 0.1 µM
# [8] = second compound 0.1 µM, first compound 0.316 µM
# [9] = second compound 0.1 µM, first compound 1 µM
# [10] = second compound 0.1 µM, first compound 3.16 µM
# [11] = second compound 0.1 µM, first compound 10 µM
# [12] = second compound 0.316 µM, first compound 0.0316 µM
# [13] = second compound 0.316 µM, first compound 0.1 µM
# [14] = second compound 0.316 µM, first compound 0.316 µM
# [15] = second compound 0.316 µM, first compound 1 µM
# [16] = second compound 0.316 µM, first compound 3.16 µM
# [17] = second compound 0.316 µM, first compound 10 µM
# [18] = second compound 1 µM, first compound 0.0316 µM
# [19] = second compound 1 µM, first compound 0.1 µM
# [20] = second compound 1 µM, first compound 0.316 µM
# [21] = second compound 1 µM, first compound 1 µM
# [22] = second compound 1 µM, first compound 3.16 µM
# [23] = second compound 1 µM, first compound 10 µM
# [24] = second compound 3.16 µM, first compound 0.0316 µM
# [25] = second compound 3.16 µM, first compound 0.1 µM
# [26] = second compound 3.16 µM, first compound 0.316 µM
# [27] = second compound 3.16 µM, first compound 1 µM
# [28] = second compound 3.16 µM, first compound 3.16 µM
# [29] = second compound 3.16 µM, first compound 10 µM
# [30] = second compound 10 µM, first compound 0.0316 µM
# [31] = second compound 10 µM, first compound 0.1 µM
# [32] = second compound 10 µM, first compound 0.316 µM
# [33] = second compound 10 µM, first compound 1 µM
# [34] = second compound 10 µM, first compound 3.16 µM
# [35] = second compound 10 µM, first compound 10 µM
# 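Throughout, for viability, T/C: spheroids mix tumor cells with HUVEC endothelium and human MSC stroma; luminescence taken as viability surrogate after a week of drug exposure.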
SMILES,IC50 [1] [µM],IC50 [2] [µM],IC50 [3] [µM],IC50 [4] [µM],IC50 [5] [µM],"viability, T/C [6] [%]","viability, T/C [7] [%]","viability, T/C [8] [%]","viability, T/C [9] [%]","viability, T/C [12] [%]","viability, T/C [13] [%]","viability, T/C [14] [%]","viability, T/C [15] [%]","viability, T/C [18] [%]","viability, T/C [19] [%]","viability, T/C [20] [%]","viability, T/C [21] [%]","viability, T/C [24] [%]","viability, T/C [25] [%]","viability, T/C [26] [%]",other results
COc1ccc([C@@H](O)c2cc(-c3ncnc4cc(N5CCOCC5)ccc34)c(F)cc2Cl)nn1 + Cc1ccccc1N=Nc1ccc(NC(=O)c2ccnn2C)c(C)c1,> 10,> 10,> 10,> 10,> 10,116,98.5,75.9,78.1,98.8,96.3,93.5,89.9,109,133,108,97.2,139,117,128,"viability, T/C [10]: 67.1%; viability, T/C [11]: 48.3%; viability, T/C [16]: 72.8%; viability, T/C [17]: 56.6%; viability, T/C [22]: 84.4%; viability, T/C [23]: 59%; viability, T/C [27]: 101%; viability, T/C [28]: 91.3%; viability, T/C [29]: 54.3%; viability, T/C [30]: 142%; viability, T/C [31]: 136%; viability, T/C [32]: 142%; viability, T/C [33]: 105%; viability, T/C [34]: 88.9%; viability, T/C [35]: 49.9%"
CC(C)c1c(-c2ccccc2)nc2c(C#N)c[nH]n2c1=O + CC(CO)NC(=O)c1cc(-c2ccc(Cl)cc2)nn(-c2cnn(C)c2)c1=O,> 10,> 10,> 10,> 10,> 10,91,83.6,89.4,91.4,80.1,103,75.7,86.1,82.1,89.4,93.5,94.2,98.5,93.7,97,"viability, T/C [10]: 66.3%; viability, T/C [11]: 78.2%; viability, T/C [16]: 73.3%; viability, T/C [17]: 88.5%; viability, T/C [22]: 70.7%; viability, T/C [23]: 51.9%; viability, T/C [27]: 96.5%; viability, T/C [28]: 72%; viability, T/C [29]: 70%; viability, T/C [30]: 84.5%; viability, T/C [31]: 81.2%; viability, T/C [32]: 86.4%; viability, T/C [33]: 71.8%; viability, T/C [34]: 54.6%; viability, T/C [35]: 54.7%"
CC(CO)NC(=O)c1cc(-c2ccc(Cl)cc2)nn(-c2cnn(C)c2)c1=O (configuration not stated),,,,,,,,,,,,,,,,,,,,,"viability, T/C (compound 10 µM): 87.4% [middle of 19 runs]; IC50 (compound alone, run of 05/31/2022): > 10 µM"
O=C(c1cc(Cc2n[nH]c(=O)c3ccccc23)ccc1F)N1CCN(C(=O)C2CC2)CC1 + Cc1cncc(-c2nc(NCCc3c[nH]c4ccccc34)c3ncn(C(C)C)c3n2)c1,> 10,> 10,> 10,> 10,> 10,106,97.8,113,106,101,114,109,102,119,116,115,99.4,142,133,121,"viability, T/C [10]: 98%; viability, T/C [11]: 92.4%; viability, T/C [16]: 86.9%; viability, T/C [17]: 99.5%; viability, T/C [22]: 104%; viability, T/C [23]: 89.2%; viability, T/C [27]: 135%; viability, T/C [28]: 115%; viability, T/C [29]: 126%; viability, T/C [30]: 139%; viability, T/C [31]: 156%; viability, T/C [32]: 167%; viability, T/C [33]: 117%; viability, T/C [34]: 114%; viability, T/C [35]: 123%"
CC1COCCN1c1cc(-c2ccnn2C)c2ccnc(-c3ccn[nH]3)c2n1 (configuration not stated) + CC(CO)NC(=O)c1cc(-c2ccc(Cl)cc2)nn(-c2cnn(C)c2)c1=O,0.0881,0.106,0.0813,0.0677,0.0378,98.3,44.3,11.2,14.6,110,54.5,8.67,13.1,120,37,8.65,13.6,94.4,27.6,8.07,"viability, T/C (second compound 0.1 µM, first compound 0.00316 µM): 91.6%; viability, T/C (second compound 0.1 µM, first compound 0.01 µM): 121%; viability, T/C (second compound 0.316 µM, first compound 0.00316 µM): 141%; viability, T/C (second compound 0.316 µM, first compound 0.01 µM): 126%; viability, T/C (second compound 1 µM, first compound 0.00316 µM): 93%; viability, T/C (second compound 1 µM, first compound 0.01 µM): 115%; viability, T/C (second compound 3.16 µM, first compound 0.00316 µM): 115%; viability, T/C (second compound 3.16 µM, first compound 0.01 µM): 102%; viability, T/C [27]: 12.1%; viability, T/C (second compound 10 µM, first compound 0.00316 µM): 93.5%; viability, T/C (second compound 10 µM, first compound 0.01 µM): 89.5%; viability, T/C [30]: 55.8%; viability, T/C [31]: 17.8%; viability, T/C [32]: 7.29%; viability, T/C [33]: 12.2%"
